Test system: ventricular papillary muscle cell of guinea pig
Assay: Action potential of the ventricular papillary muscle cell of guinea pig (electrophysiological recording)
Format: cell-based
Conditions: screening stage; for percent change in action potential duration at 0.0005 µM / percent change in action potential duration at 0.005 µM / percent change in action potential duration at 0.05 µM: Cavia porcellus, 20 min, read-out: APD, Change rate (%); for Effect on the APD value of the action potential of the papillary muscle (in words): Table 3 summary; for APD, Post-administration: about 20 min perfusion
Description: Method: One guinea pig was taken to violently hit the back of the brain such that it fainted. The common carotid artery was cut off for bleeding to kill the guinea pig. The chest was incised to expose the heart, and the ventricle was cut open along the interventricular septum to expose the lumen of the left ventricle. The papillary muscles were quickly taken out and placed in a Kreb's solution saturated with O2 (mixed gas of 95% O2 and 5% CO2) at 0° C. After the microscopic dressing, the papillary muscle specimen was fixed with a stainless steel needle on the silicone rubber at the bottom of the perfusion bath, and perfused with the oxygen-saturated Kreb's solution. The relevant parameters for perfusion: the temperature was 37±0.5° C., and the flow rate was 4 mL/min.
Cellular action potentials were recorded using a conventional electrophysiological method. The glass electrode filled with 3M KCl saturated solution and having a tip resistance of 15-30 MΩ was fixed on the microelectrode manipulator MP-2. The glass electrode was gently inserted into the superficial layer of the prepared papillary muscle specimen using a microelectrode pusher. The electrode was adjusted to provide the predetermined bioelectrical stimulation with the triple-channel SEN-7203 electronic stimulator and SS-202 J isolator. The bioelectrical signal was amplified by the MEZ-8301 amplifier and then input to the computerized electrophysiological recording and analysis system Powerlab 4/25. Subsequently, the relevant parameters of the action potential for the ventricular papillary muscle were analyzed through the analysis system. The relevant parameters for electrical stimulation: 30 ms latency, 7 ms wavewidth, 1 Hz frequency, 52.1 my stimulation intensity.
In the compound screening test stage, after the ventricular papillary muscle specimen of the guinea pig was fixed, it was first perfused with a normal Kreb's solution for about 85 minutes for stabilization, and the relevant parameters of the cellular action potential before administration were recorded at about 80 min after the start of perfusion. The three-limb tube was used to convert the perfusates containing the title compounds. The title compounds were continuously perfused for about 25 min successively with low (0.0005 μM), medium (0.005 μM), and high (0.05 μM) concentrations, respectively. At about 20 min after the start of drug perfusions at different concentrations, the relevant parameters of the action potentials for the ventricular papillary muscle of guinea pig were observed and recorded, respectively. The normal Kreb's solution was used to perfuse and elute for about 25 min during the intervals between drug perfusions at different concentrations.
The experiment was divided into the following five groups with 6 animals in each group: a vehicle control group, a 369 low dose (0.0005 μM) group, a 369 medium dose (0.005 μM) group, a 369 high dose (0.05 μM) group, and an amiodarone (10 μM) positive control group. After the ventricular papillary muscle specimen of the guinea pig was fixed, it was first perfused with a normal Kreb's solution for about 85 minutes for stabilization, and the relevant parameters of the cellular action potential before administration were recorded at about 80 min after the start of perfusion. According to groups, the three-limb tube was configured to convert the perfusates containing the vehicle, positive control, or Compound 369 at the corresponding concentrations to continuously perfuse for about 25 min. At about 20 min after the start of the perfusions, the relevant parameters of the action potentials for the ventricular papillary muscle of guinea pig were observed and recorded.

CC(=O)C1=CC[C@@]2(C)[C@@H]3CC[C@H]4C(C)(C)[C@@H](N(C)C)CC[C@@]45C[C@@]35CC[C@]12C [Compound 383, (3β,5α)-4,4,14-trimethyl-3-(dimethylamino)-9,19-cyclopregnan-16-en-20-one]
percent change in action potential duration at 0.0005 µM (0.0005 μM): 16.3% | percent change in action potential duration at 0.005 µM (0.005 μM): 29% | Effect on the APD value of the action potential of the papillary muscle (in words): a certain degree of prolonged effects | APD, Post-administration (0.0005 μM): 0.0943 | APD, Post-administration (0.005 μM): 0.1024

CN[C@H]1CC[C@]23C[C@]24CC[C@]2(C)C(C(C)=O)=C(C)C[C@@]2(C)[C@@H]4CC[C@H]3C1(C)C [Compound 383a, (3β,5α)-4,4,14,16-tetramethyl-3-(methylamino)-9,19-cyclopregnan-16-en-20-one]
percent change in action potential duration at 0.0005 µM (0.0005 μM): 4.02% | percent change in action potential duration at 0.005 µM (0.005 μM): 33% | percent change in action potential duration at 0.05 µM (0.05 μM): 30% | Effect on the APD value of the action potential of the papillary muscle (in words): a certain degree of prolonged effects | APD, Post-administration (0.0005 μM): 0.0751 | APD, Post-administration (0.005 μM): 0.0943 | APD, Post-administration (0.05 μM): 0.0948

CN[C@H]1CC[C@]23C[C@]24CC[C@]2(C)C(/C(C)=N\O)=CC[C@@]2(C)[C@@H]4CC[C@H]3C1(C)C [Compound 384, (3β,5α)-4,4,14-trimethyl-3-(methylamino)-9,19-cyclopregnan-16-en-20-one oxime]
percent change in action potential duration at 0.0005 µM (0.0005 μM): 21.2% | percent change in action potential duration at 0.005 µM (0.005 μM): 38.6% | percent change in action potential duration at 0.05 µM (0.05 μM): 41.3% | Effect on the APD value of the action potential of the papillary muscle (in words): a certain degree of prolonged effects | APD, Post-administration (0.0005 μM): 0.0890 | APD, Post-administration (0.005 μM): 0.0988 | APD, Post-administration (0.05 μM): 0.1047

CN[C@H]1CC[C@]23C[C@]24CC[C@]2(C)C(C(=O)CO)=CC[C@@]2(C)[C@@H]4CC[C@H]3C1(C)C [Compound 385, (3β,5α)-4,4,14-trimethyl-21-hydroxy-3-(methylamino)-9,19-cyclopregnan-16-en-20-one]
percent change in action potential duration at 0.0005 µM (0.0005 μM): 16.4% | percent change in action potential duration at 0.005 µM (0.005 μM): 27.4% | percent change in action potential duration at 0.05 µM (0.05 μM): 40.1% | Effect on the APD value of the action potential of the papillary muscle (in words): a certain degree of prolonged effects | APD, Post-administration (0.0005 μM): 0.0796 | APD, Post-administration (0.005 μM): 0.0893 | APD, Post-administration (0.05 μM): 0.975

CN[C@H]1CC[C@]23C[C@]24CC[C@]2(C)C(C(C)=O)=C(F)C[C@@]2(C)[C@@H]4CC[C@H]3C1(C)C [Compound 387, (3β,5α)-4,4,14-trimethyl-16-fluoro-3-(methylamino)-9,19-cyclopregnan-16-en-20-one]
percent change in action potential duration at 0.0005 µM (0.0005 μM): 8.49% | percent change in action potential duration at 0.005 µM (0.005 μM): 19.8% | percent change in action potential duration at 0.05 µM (0.05 μM): 24.2% | Effect on the APD value of the action potential of the papillary muscle (in words): a certain degree of prolonged effects | APD, Post-administration (0.0005 μM): 0.0869 | APD, Post-administration (0.005 μM): 0.0944 | APD, Post-administration (0.05 μM): 0.0985

CCN(C)[C@H]1CC[C@]23C[C@]24CC[C@]2(C)C(C(C)=O)=CC[C@@]2(C)[C@@H]4CC[C@H]3C1(C)C [Compound 397, (3β,5α)-4,4,14-trimethyl-3-(methylethylamino)-9,19-cyclopregnan-16-en-20-one]
percent change in action potential duration at 0.0005 µM (0.0005 μM): 7.68% | percent change in action potential duration at 0.005 µM (0.005 μM): -3% | percent change in action potential duration at 0.05 µM (0.05 μM): 11.8% | APD, Post-administration (0.0005 μM): 0.0785 | APD, Post-administration (0.005 μM): 0.0711 | APD, Post-administration (0.05 μM): 0.0841

— US10568892B2, “Cycloartane tetracyclic triterpenoid compound, preparation method therefor and use thereof” (Hefei Cosource Pharmaceuticals Inc., priority 2016, dated 2020)
